Measured values taken from patent US20060089371A1, “Phenyl or heteroaryl amino alkane derivatives as ip receptor antagonist” (Bayer HealthCare AG, priority 2002, published 2006).
Where a name gives a salt, the structure may show the parent alone.

Tests used:
[1] = target: T1, IP receptor (Homo sapiens, UniProt P43119); experiment: IP receptor binding/cAMP in HEL cells ([3H]-iloprost binding, Assay 1; iloprost-induced cAMP production, Assay 2); details: compounds of about 40 to 90% purity, read-out: In vitro activity grade (IC50 class)
T1 construct: one million cells in 160 μl aliquot of cell suspension were put in a well of 96 well plate; host or cells: HEL 92.1.7 human erythroleukemia cells (whole cells)
T1 sequence (P43119 whole entry): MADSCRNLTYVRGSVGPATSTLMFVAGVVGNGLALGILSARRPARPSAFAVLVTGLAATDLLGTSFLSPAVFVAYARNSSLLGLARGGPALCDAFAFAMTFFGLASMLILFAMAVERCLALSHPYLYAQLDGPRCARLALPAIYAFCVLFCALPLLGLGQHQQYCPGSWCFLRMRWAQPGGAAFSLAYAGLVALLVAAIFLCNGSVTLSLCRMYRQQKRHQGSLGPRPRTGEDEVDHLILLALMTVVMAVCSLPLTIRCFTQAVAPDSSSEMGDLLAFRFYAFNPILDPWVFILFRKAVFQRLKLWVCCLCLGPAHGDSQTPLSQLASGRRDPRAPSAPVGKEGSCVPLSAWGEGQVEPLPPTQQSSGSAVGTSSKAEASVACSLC
Description: [Measurement of the [^3H]-iloprost Binding to HEL Cells] (Assay 1)
A human erythloleukemia cell line, HEL 92.1.7, was purchased from American Type Culture Correction and maintained in RPMI-1640 medium (Gibco BRL) supplemented with 10% fetal calf serum (FCS), 2 mM glutamine, 4.5 g/L glucose, 10 mM Hepes, 1 mM sodium pyruvate, 100 U/ml penicillin, and 100 μg/ml streptomycin in a humidified 5% CO2 atmosphere at 37° C. Cells were collected with centrifugation and washed with binding assay buffer (BAB: 50 mM Tris-HCl, 5 mM MgCl2 (pH 7.5)). Cells were suspended at the density of 6.25×10^6 cells/ml in BAB, and one million cells in 160 μl aliquot of cell suspension were put in a well of 96 well plate (Falcon). Then, 20 μl of compound solution, 100 μM of iloprost (for non-specific binding), or buffer alone (total binding), diluted with 1% DMSO in BAB was added. Finally, another 20 μl containing [^3H]-iloprost (0.02 μCi, 0.5-1 pmol) in BAB was added and incubated at room temperature for 30 min with a gentle shaking. Cell suspension was then transferred to a well of MultiScreen plate with GF/C glass filters (Millipore) to harvest cells. Cells were washed twice with 200 μl of ice-cold BAB and the plate was kept at 55° C. for 30 min to dry filters. The filter in the well was punched out to a counting tube and 2 ml of Ultima Gold XR (Packard) was added. [^3H]-radio activity in the filter was measured by a liquid scintillation counter (Beckman, USA).
[Iloprost-Induced cAMP Production Assay in HEL Cells] (Assay 2)
HEL cells were collected with centrifugation and washed with cAMP assay buffer (CAB: Hank's balanced salt solution, 17 mM Hepes, 0.1% bovine serum albumin, 1 mM IBMX, 0.4% DMSO, and 1 mM L-ascorbic acid sodium salt (pH 7.4)). Cells were suspended at the density of 2.5×10^5 cells/ml in CAB, and twenty thousand cells in 80 μl aliquot of cell suspension were put in a well of 96 well plate (Falcon). Then, 10 μl of compound solution diluted with 1% DMSO in CAB or buffer alone was added. The plate was incubated at 37° C. for 30 min. Then, another 10 μl containing 100 nM iloprost in CAB or buffer alone was added and further incubated at 37° C. for 30 min. cAMP content in the well was measured by a cAMP ELISA kit (Applied Biosystems, USA).
The data corresponds to the compounds as yielded by solid phase synthesis and thus to levels of purity of about 40 to 90%. For practical reasons, the compounds are grouped in three classes of activity as follows: IC50=A<0.1 μM≦B<1 μM≦C

| IC50 [1] [nM] | melting point | Structure (SMILES) |
| --- | --- | --- |
| < 100 | – | N#Cc1ccnc(Oc2ccc(-c3cc(N[C@@H](Cc4ccccc4)C(=O)O)ncn3)cc2)c1 [Example 12-1, N-(6-{4-[(4-cyanopyridin-2-yl)oxy]phenyl}pyrimidin-4-yl)phenylalanine] |
| > 1000 | – | O=C(O)C(Cc1ccccc1)Nc1cc(-c2ccc(Oc3ncc(C(F)(F)F)cc3Cl)cc2)ncn1 (stereo not shown) [Example 12-2] |
| 100 to 1000 | – | O=C(O)C(Cc1ccccc1)Nc1cc(-c2ccc(Oc3cc(C(F)(F)F)ncn3)cc2)ncn1 (stereo not shown) [Example 12-3] |
| > 1000 | – | Cc1ccc(C#N)c(Oc2ccc(-c3cc(NC(Cc4ccccc4)C(=O)O)ncn3)cc2)n1 (stereo not shown) [Example 12-4] |
| 100 to 1000 | – | O=C(O)C(Cc1ccccc1)Nc1cc(-c2ccc(Oc3ccc(C(F)(F)F)cn3)cc2)ncn1 (stereo not shown) [Example 12-5] |
| 100 to 1000 | – | O=C(O)C(Cc1ccccc1)Nc1cc(-c2ccc(Oc3ccc4ccccc4n3)cc2)ncn1 (stereo not shown) [Example 12-6] |
| < 100 | – | O=C(O)C(Cc1ccccc1)Nc1cc(-c2ccc(NCc3ccccc3)cc2)ncn1 (stereo not shown) [Example 13-1, N-{6-[4-Benzylamino)phenyl]pyrimidin-4-yl}phenylalanine hydrochloride] |
| > 1000 | – | O=C(O)[C@H](Cc1ccccc1)Nc1cc(-c2ccc(NS(=O)(=O)c3ccccc3)cc2)ncn1 [Example 15-1, N-(6-{4-[(Phenylsulfonyl)amino]phenyl}pyrimidin-4-yl)phenylalanine] |
| 100 to 1000 | – | O=C(O)[C@H](Cc1ccccc1)Nc1cc(-c2ccc(NCC3CC3)cc2)ncn1 [Example 16-1, N-(6-{4-[(Cyclopropylmethyl)amino]phenyl}pyrimidin-4-yl)phenylalanine] |
| – | 116 to 118 °C | O=C(O)[C@H](Cc1ccccc1)Nc1cc(-c2ccc(Cc3ccccc3)cc2)ncn1 [Example 18-1, N-[6-(4-Benzylphenyl)pyrimidin-4-yl]phenylalanine] |
| < 100 | – | O=C(O)C(Cc1ccccc1)Nc1cc(-c2ccc(CNc3ccccc3)cc2)ncn1 (stereo not shown) [Example 19-1, N-{6-[4-(Anilinomethyl)phenyl]pyrimidinyl}phenylalanine] |
| 100 to 1000 | – | O=C(O)C(Cc1ccccc1)Nc1cc(-c2ccc(CN3Cc4ccccc4C3)cc2)ncn1 (stereo not shown) [Example 19-3] |
| < 100 | – | O=C(O)[C@H](Cc1ccccc1)Nc1cc(-c2ccc(COc3ccccc3)cc2)ncn1 [Example 20-1, N-{6-[4-(Phenoxymethyl)phenyl]pyrimidin-4-yl}phenylalanine] |
| 100 to 1000 | – | c1ccc(COc2ccc(-c3cc(NC(Cc4ccccn4)c4nnn[nH]4)ncn3)cc2)cc1 (stereo not shown) [Example 27-2] |
| < 100 | – | O=C(O)C(Cc1ccccc1)Nc1cc(-c2ccc(OCc3ccccc3)cc2)on1 (stereo not shown) [Example 28-2] |
| > 1000 | – | Cn1nc(-c2ccc(OCc3ccccc3)cc2)cc1NC(Cc1ccccc1)C(=O)O (stereo not shown) [Example 28-3] |
| > 1000 | – | O=C(O)C(Cc1ccccc1)Nc1nc(-c2ccc(OCc3ccccc3)cc2)cs1 (stereo not shown) [Example 28-4] |
| < 100 | – | O=C(O)[C@H](Cc1ccccc1)Nc1nccc(-c2ccc(OCc3ccccc3)cc2)n1 [Example 29-1, N-{4-[4-(Benzyloxy)phenyl]pyrimidin-2-yl}phenylalanine] |

Continued, molecule first:

| Structure (SMILES) | IC50 [1] [nM] | melting point |
| --- | --- | --- |
| O=C(O)[C@@H](Cc1ccccc1)Nc1cc(-c2ccc(OCc3ccccc3)cc2)ncn1 [Example 1-1, N-{6-[4-(Benzyloxy)phenyl]pyrimidin-4-yl}-D-phenylalanine] | < 100 | – |
| O=C(O)[C@@H](Cc1ccccc1)Nc1cc(-c2ccc(OCC3CC3)cc2)ncn1 [Example 1-2, N-{6-[4-(Cyclopropylmethoxy)phenyl]pyrimidin-4-yl}-D-phenylalanine] | < 100 | 180 to 183 °C (dec.) |
| CCCC[C@@H](Nc1cc(-c2ccc(OCc3ccccc3)cc2)ncn1)C(=O)O [Example 1-3, N-{6-[4-(benzyloxy)phenyl]pyrimidin-4-yl}-D-norleucine hydrochloride] | < 100 | – |
| O=C(O)[C@@H](Cc1ccccn1)Nc1cc(-c2ccc(OCc3ccccc3)cc2)ncn1 [Example 1-4, N-{6-[4-(benzyloxy)phenyl]pyrimidin-4-yl}-3-pyridin-2-yl-D-alanine] | < 100 | 142 °C |
| O=C(Nc1ccccc1)c1ccc(-c2cc(NC(Cc3ccccc3)C(=O)O)ncn2)cc1 (stereo not shown) [Example 1-5] | 100 to 1000 | 228 to 231 °C (dec.) |
| O=C(O)C(Cc1ccccc1)Nc1cc(-c2ccc(CCCc3ccccc3)cc2)ncn1 (stereo not shown) [Example 1-6] | < 100 | 112 to 114 °C |
| O=C(O)C(Cc1ccccc1)Nc1cc(-c2ccc(OCc3ccccc3)cc2)nc(Cl)n1 (stereo not shown) [Example 1-21] | < 100 | – |
| O=C(O)C(Cc1c[nH]c2ccccc12)Nc1cc(-c2ccc(OCc3ccccc3)cc2)ncn1 (stereo not shown) [Example 1-37] | < 100 | – |
| Nc1nc(NC(Cc2ccccc2)C(=O)O)cc(-c2ccc(OCc3ccccc3)cc2)n1 (stereo not shown) [Example 1-38] | < 100 | – |
| O=C(O)C(Cc1ccccc1)Nc1cc(-c2ccccc2)ncn1 (stereo not shown) [Example 1-51] | 100 to 1000 | – |
| O=C(O)C(Cc1ccccc1)Nc1cc(-c2ccc(F)cc2)ncn1 (stereo not shown) [Example 1-52] | 100 to 1000 | – |
| O=C(O)C(Cc1ccccn1)Nc1cc(-c2ccc(-c3ccccc3)cc2)ncn1 (stereo not shown) [Example 1-53] | < 100 | – |
| CSc1nc(NC(Cc2ccccc2)C(=O)O)cc(-c2ccc(OCc3ccccc3)cc2)n1 (stereo not shown) [Example 1-54] | 100 to 1000 | – |
| O=C(O)C(Cc1ccccc1)Nc1cc(-c2ccc(Cl)cc2)ncn1 (stereo not shown) [Example 1-55] | 100 to 1000 | – |
| CCOc1ccc(-c2cc(NC(Cc3ccccc3)C(=O)O)ncn2)cc1 (stereo not shown) [Example 2-18] | < 100 | – |
| CCCOc1ccc(-c2cc(NC(Cc3ccccc3)C(=O)O)ncn2)cc1 (stereo not shown) [Example 2-19] | < 100 | – |
| COc1cccc(COc2ccc(-c3cc(NC(Cc4ccccn4)C(=O)O)ncn3)cc2)c1 (stereo not shown) [Example 2-36] | < 100 | – |
| COc1cc(COc2ccc(-c3cc(NC(Cc4ccccn4)C(=O)O)ncn3)cc2)cc(OC)c1 (stereo not shown) [Example 2-37] | < 100 | – |
| O=C(O)C(Cc1ccccc1)Nc1cc(-c2ccc(OCC3CC3)c(F)c2)ncn1 (stereo not shown) [Example 2-41] | < 100 | – |
| CCCCC(Nc1cc(-c2ccc(OCC3CC3)c(F)c2)ncn1)C(=O)O (stereo not shown) [Example 2-42] | 100 to 1000 | – |
| O=C(O)C(Cc1ccccn1)Nc1cc(-c2ccc(OCC3CC3)c(F)c2)ncn1 (stereo not shown) [Example 2-43] | 100 to 1000 | – |
| O=C(O)[C@H](Cc1ccccc1)Nc1ccnc(-c2ccc(OCc3ccccc3)cc2)n1 [Example 3-1, N-{2-[4-(Benzyloxy)phenyl]-4-pyrimidinyl}phenylalanine] | 100 to 1000 | – |
| O=C(O)C(Cc1cccc(OCCN2CCOCC2)c1)Nc1cc(-c2ccc(OCc3ccccc3)cc2)ncn1 (stereo not shown) [Example 4-2] | < 100 | – |
| O=C(O)[C@H](Cc1ccc(NC2=NCCN2)cc1)Nc1cc(-c2ccc(OCc3ccccc3)cc2)ncn1 [Example 6-1, N-{6-[4-(Benzyloxy)phenyl]pyrimidin-4-yl}-4-(4,5-dihydro-1H-imidazol-2-yl-amino)phenylalanine] | < 100 | – |
| O=C(O)C(Cc1ccccc1)Nc1cc(-c2ccc(CCc3ccccc3)cc2)ncn1 (stereo not shown) [Example 8-1, N-{6-[4-(2-Phenylethyl)phenyl]pyrimidinyl}phenylalanine] | < 100 | – |
| COc1ccc(-c2ccc(-c3cc(N[C@@H](Cc4ccccc4)C(=O)O)ncn3)cc2)cc1 [Example 11-1, N-[6-(4′-Methoxybiphenyl-4-yl)pyrimidin-4-yl]phenylalanine] | < 100 | – |
| O=C(O)C(Cc1ccccc1)Nc1cc(-c2ccc(-c3ccc(-c4ccccc4)cc3)cc2)ncn1 (stereo not shown) [Example 11-8] | > 1000 | – |
